From patent US8648116B2, “Derivatives of N-(arylamino) sulfonamides including polymorphs as inhibitors of MEK as well as compositions, methods of use and methods for preparing the same” (Ardea Biosciences, Inc., priority 2005, dated 2014)
Read-outs that look alike come from different tables or passages of the source. Marks after values point to notes of the source that are not given here.

Assays:
[1] = tested on: A431 epidermoid cells; experiment: Anchorage-independent growth inhibition (MTS, 7 days, non-binding plates); assay type: cell-based; details: Homo sapiens, A-431, 168 h, BRAF Normal, read-out: Anchorage-Independent GI50 (nM ± sd)
[2] = tested on: HT29 colon cancer tumors; experiment: Anti-tumor xenograft activity, TGI (Example 94); assay type: in vivo, nu/nu mice; details: 25 mg/kg QD oral, 14 days
Procedure: (§1) Human tumors were implanted in nu/nu mice. Compound A was administered orally for 14 days once tumors were approximately 100 mm^3 in size. Tumor growth inhibition (TGI) was determined after 14 days of treatment as the reduction in the size of tumors in treated groups versus vehicle controls. The time to endpoint (TTE) was calculated as the time for the tumor to reach the specified endpoint volume or the last day of the study, whichever came first. Treatment outcome was determined from percent tumor growth delay (% TGD), defined as the percent increase in median TTE of treated versus vehicle-treated control mice. Animals were also monitored for regression responses. Levels of pERK in tumors and brain were determined by Western blots and correlated with plasma levels of Compound A for the pharmacodynamic/pharmacokinetic study. A number of tumor models were evaluated with different doses and dosing regimens. […] The effect of different dosing regimens was evaluated in A375 xenografts.
Female nu/nu mice were implanted with A375 Melanoma, Colo205 Colon Tumor, A431 Epidermoid Tumor or HT-29 Colon Tumor cells, which were allowed to grow to 100-200 mm^3. […]
(§2) Tumor Growth Inhibition for the groups treated with 25 mg/kg Compound A were calculated for the indicated tumor xenografts. Tumor Growth Inhibition was measured at the end of once daily dosing for 14 days and calculated according to: […]

[3] = tested on: A431 epidermoid tumors; experiment: Anti-tumor xenograft activity, TGI and TGD (Example 94); assay type: in vivo, nu/nu mice
Procedure: as §1
(§3) Female nu/nu mice were implanted with A375 Melanoma, Colo205 Colon Tumor, A431 Epidermoid Tumor or HT-29 Colon Tumor cells, which were allowed to grow to 100-200 mm^3. Compound A or vehicle was administered orally (25 mg/kg, 50 mg/kg or 100 mg/kg), once a day, for 14 days.
as §2

[4] = tested on: Colo205 colon cancer tumors; experiment: as above; assay type: in vivo, nu/nu mice
Procedure: as §1, §3, §2

[5] = tested on: Colo205 tumor cells; experiment: ED50 in Colo205 xenografts (Example 94D); assay type: in vivo, nu/nu mice
Excerpt: Male nu/nu mice were implanted with Colo205 tumor cells. After 10 days animals were randomized by tumor size (range 126-256 mm^3) and treated with paclitaxel (IV, QODx5), vehicle or Compound A (PO, QDx14).

[6] = Pharmacokinetic parameters in Balb/c mice (Example 94D); assay type: in vivo
Procedure: Pharmacokinetic parameters were obtained from dosing Balb/c mice with 25 mg/kg Compound A and extrapolating values for the lower dose groups and shown in the table below.

[7] = tested on: pERK in brain; experiment: MEK inhibition (pERK, Western blot) against plasma concentration, brain; assay type: in vivo, nu/nu mice
Procedure: as §1
Female nu/nu mice implanted with Colo205 tumor cells were given a single dose of vehicle or Compound A at 2.5, 5, 10, or 25 mg/kg. Compound levels were determined in plasma samples and pERK levels were determined in tumor and brain samples collected at 2, 6, 12, and 24 hr post-dose. […]

[8] = Concentration-time profiles after a single dose of capsules; parameters: species or system human cancer patients; details: human, in vivo, oral, capsules of example 95A, Day 1; for AUC(0-t): read-out: AUC0-12hr
Procedure: Human cancer patients were administered a single dose of the 1 mg or 10 mg capsule composition described above in example 95A. For a 2 mg dose, patients were given 2×1 mg capsules; for a 4 mg dose, patients were given 4×1 mg capsules; for a 6 mg dose, patients were given 6×1 mg capsules; for a 10 mg dose, patients were given 1×10 mg capsule; for a 20 mg dose, patients were given 2×10 mg capsules.
The concentration-time profiles were monitored and are shown in FIG. 4 and in the table below: […]

[9] = tested on: SK Mel28 melanoma cells; experiment: Anchorage-dependent growth inhibition (ATP content, 48 hr); assay type: cell-based, human; details: SK Mel 28, separate study
[10] = tested on: BxPC3 pancreatic adenocarcinoma cells; experiment: as above; assay type: cell-based, human; details: BxPC3, 48 hr
[11] = tested on: select human cancer cells; experiment: Growth inhibition in proliferation assays, summary over cell lines; assay type: cell-based
[12] = tested on: MDA-MB231 cells; experiment: Anchorage-independent growth inhibition (MTS, 7 days); assay type: cell-based, human
[13] = tested on: A375 cells; experiment: Cytotoxic lysis by adenylate kinase (AK) release, 48 hr; assay type: cell-based, human
Procedure: Cell supernatants were analyzed for cytotoxic lysis by measuring adenylate kinase (AK) release. […] The lack of AK release was confirmed for all cell lines tested.
100% viability (ATP assay) was determined in vehicle only control wells.

[14] = tested on: gastric adenocarcinoma AGS cells; experiment: Cell proliferation assay (CellTiterGlo, 3 days and 6 days); assay type: cell-based, human; details: 3 days and 6 days exposure
Procedure: Human gastric adenocarcinoma AGS cells were obtained from ATCC (Manassas, Va.). […] For cell proliferation experiments, cells were plated in white 96-well plates with clear bases at 3000 cells/100 μl/well. […] The ATP level for each dose was determined in triplicate using independent wells.

[15] = human, in vivo
[16] = 2.5 mg/kg, extrapolated from 25 mg/kg in Balb/c mice
[17] = 5 mg/kg, extrapolated from 25 mg/kg in Balb/c mice
[18] = 10 mg/kg, extrapolated from 25 mg/kg in Balb/c mice

In the case of `COc1cc(F)c(F)c(Nc2ccc(I)cc2F)c1NS(=O)(=O)C1(C[C@H](O)CO)CC1` [Compound A], the GI50 [1] is reported as 65 ± 19 nM, the “% TGI” value [2] is reported as 56% and the “% TGI” value ([3]; A431 Epidermoid xenograft, 25 mg/kg QD oral, 14 days) is reported as 67%. For the same compound, the “% TGD, significance” value ([3]; A431 epidermoid tumors, 25 or 50 mg/kg once daily (QD)) was “statistically significant”, the “% TGI” value ([4]; Colo205 Colon xenograft, 25 mg/kg QD oral, 14 days, range from 2 separate studies) was 70-123** % and the “% TGD, significance” value ([4]; Colo205 colon cancer tumors, 25 or 50 mg/kg once daily (QD)) was “statistically significant”. For the same compound, the “% TGI” value ([5]; Compound A 2.5 mg/kg PO QDx14) was 47* %, the “Day 15 Tumor Volume” value ([5]; Compound A 2.5 mg/kg PO QDx14) was 1187 ± 127 mm^3 and the “% TGI” value ([5]; Compound A 5 mg/kg PO QDx14) was 48* %. The “Day 15 Tumor Volume” value ([5]; Compound A 5 mg/kg PO QDx14) was 1175 ± 104 mm^3, the “% TGI” value ([5]; Compound A 10 mg/kg PO QDx14) was 55* % and the “Day 15 Tumor Volume” value ([5]; Compound A 10 mg/kg PO QDx14) was 1045 ± 160 mm^3. For the same compound, the “% TGI” value ([5]; Compound A 25 mg/kg PO QDx14) was 70* %, the “Day 15 Tumor Volume” value ([5]; Compound A 25 mg/kg PO QDx14) was 762 ± 81 mm^3 and the AUC [6, 16] was 5.5 µg·h/mL. The Cmax [6, 16] was 0.99 µg/mL, the Cmin [6, 16] was 3 ng/mL and the AUC [6, 17] was 11.0 µg·h/mL. The Cmax [6, 17] was 1.97 µg/mL, the Cmin [6, 17] was 6 ng/mL and the AUC [6, 18] was 22.0 µg·h/mL. It also gave a Cmax [6, 18] of 3.94 µg/mL, a Cmin [6, 18] of 12 ng/mL and a Cmin ([6]; 25 mg/kg, Balb/c mice) of 29 ng/mL. The AUC ([6]; mouse, in vivo, oral, 25 mg/kg, Balb/c mice, read-out: AUC) was 55 µg·h/mL, the Cmax ([6]; mouse, in vivo, oral, 25 mg/kg, Balb/c mice, read-out: Cmax) was 9.85 µg/mL and the “pERK formation in brain” value ([7]; Colo205 xenograft mice, pharmacodynamic/pharmacokinetic study) was “minimal inhibition”. For the same compound, the EC50 ([7]; Mus musculus, plasma concentration, Colo205-bearing nu/nu mice, single dose 2.5-25 mg/kg) was greater than 5 µM, the Cmax ([8]; 2 mg, 2 mg dose) was 0.111 ng/mL and the Tmax ([8]; 2 mg, 2 mg dose) was 2 h. The Cmax ([8]; 4 mg, 4 mg dose) was 0.292 ng/mL, the AUC(0-t) ([8]; 2 mg dose) was 0.7 ng·h/mL and the AUC(0-t) ([8]; 4 mg dose) was 2.26 ng·h/mL.

For `COc1cc(F)c(F)c(Nc2ccc(I)cc2F)c1NS(=O)(=O)C1(C[C@H](O)CO)CC1`, the GI50 [9] was 105 nM, the GI50 [10] was greater than 1000 nM and the GI50 ([11]; mean over A375, Colo205, HT29 and A431, 48 hr, ATP content, read-out: growth inhibition, mean potency (GI50)) was 79 nM. The GI50 ([11]; select human cancer cells, range, read-out: GI50 values, anchorage dependent proliferation assays) was 70 to 89 nM, the GI50 ([11]; select human cancer cells, read-out: GI50, anchorage dependent proliferation assays) was 51 nM and the GI50 ([11]; select human cancer cells, read-out: GI50, anchorage independent proliferation assays) was 22 nM. For the same compound, the GI50 ([12]; MDA-MB231, anchorage independent) was 81 nM, the “anchorage independent growth (FIG. 12C)” value ([12]; MDA-MB231 cells) was “inhibition of MDA-M8231 cells” and the “AK, Cell killing, % Control” value ([13]; 1 uM) was 4%. The “cytotoxic cell lysis (AK release)” value ([13]; 100% cell killing with 20 μM tamoxifen) was “lack of cytotoxic cell lysis”, the “proliferation of AGS cell line” value [14] was “inhibits the proliferation” and the half-lives [15] was 13 to 15 h.
